Oligonucleotides are written 5' to 3', each unit as a sugar letter and its base; * is a phosphorothioate linkage, no mark a phosphodiester; rarer units and linkages stand in square brackets, end groups in braces. Plain capitals give the bases only. Oligonucleotides are given in HELM: sugar(base)linkage, 5' to 3'; d 2'-deoxyribose, r ribose, m 2'-O-methylribose, p phosphate. ss, as = sense and antisense strand; d = 2'-deoxy (DNA); r = 2'-OH (RNA)
Further: test concentration or dose not given here.

The target of one data set is UBE2T. Nature of the data set: reporter assay of Huesken 2005. The note with it: siRNA. Background: In a reporter assay the amount or activity of a reporter protein is the signal.
With “sense rArArCrCrCrArArCrCrCrUrGrArUrGrArCrCrCdTdT / antisense rGrGrGrUrCrArUrCrArGrGrGrUrUrGrGrGrUrUdCdT”, the normalised inhibition (eCFP-eYFP dual reporter) was found to be 52.7%.
As for “sense rArArGrArGrArUrGrCrUrUrGrArUrArArUrCrUdTdT / antisense rArGrArUrUrArUrCrArArGrCrArUrCrUrCrUrUdCdC”, the normalised inhibition (eCFP-eYFP dual reporter) was 99.4%.
For the substance “sense rArArGrGrArUrUrUrGrUrCrUrGrGrArUrGrUrUdTdT / antisense rArArCrArUrCrCrArGrArCrArArArUrCrCrUrUdCdC”, the normalised inhibition (eCFP-eYFP dual reporter) was determined as 79.9%.
As for “sense rArArGrGrUrGrCrUrUrGrGrArGrArCrCrArUrCdTdT / antisense rGrArUrGrGrUrCrUrCrCrArArGrCrArCrCrUrUdTdT”, the normalised inhibition (eCFP-eYFP dual reporter) is 60.5%.
The same measure, in the same setting: the same measure for “sense rArArGrUrUrArUrCrArUrUrCrCrUrGrArGrArGdTdT / antisense rCrUrCrUrCrArGrGrArArUrGrArUrArArCrUrUdCdT”: 79.4%; for “sense rArArUrGrCrCrArGrArCrArGrUrGrGrArCrArGdTdT / antisense rCrUrGrUrCrCrArCrUrGrUrCrUrGrGrCrArUrUdCdT”: 77.5%; for “sense rArCrArCrArCrCrUrUrArUrGrArGrArArArGrGdTdT / antisense rCrCrUrUrUrCrUrCrArUrArArGrGrUrGrUrGrUdTdG”: 74.7%.
Consider “sense rArCrArUrArUrCrCrUrCrArGrArArUrUrUrArAdTdT / antisense rUrUrArArArUrUrCrUrGrArGrGrArUrArUrGrUdCdA”, for which the normalised inhibition (eCFP-eYFP dual reporter) came out at 114%.
Take “sense rArCrCrCrUrGrArUrGrArCrCrCrGrCrUrCrArUdTdT / antisense rArUrGrArGrCrGrGrGrUrCrArUrCrArGrGrGrUdTdG”: the normalised inhibition (eCFP-eYFP dual reporter) was 101%.
On to “sense rArCrCrUrCrCrUrCrArGrArUrCrCrGrArUrUrUdTdT / antisense rArArArUrCrGrGrArUrCrUrGrArGrGrArGrGrUdTdC”, for which the normalised inhibition (eCFP-eYFP dual reporter) was 100%.
Turning to “sense rArGrArArUrGrCrCrArGrArCrArGrUrGrGrArCdTdT / antisense rGrUrCrCrArCrUrGrUrCrUrGrGrCrArUrUrCrUdTdG”, the normalised inhibition (eCFP-eYFP dual reporter) was determined as 95%.
For “sense rArGrCrUrGrCrUrCrArUrGrUrCrArGrArArCrCdTdT / antisense rGrGrUrUrCrUrGrArCrArUrGrArGrCrArGrCrUdGdA”, the normalised inhibition (eCFP-eYFP dual reporter) turned out to be 79.4%.
The same measure, in the same setting: the same measure for “sense rArGrGrArArGrArGrArUrGrCrUrUrGrArUrArAdTdT / antisense rUrUrArUrCrArArGrCrArUrCrUrCrUrUrCrCrUdCdA”: 113%; for “sense rArGrGrUrArCrCrCrArUrUrUrGrArArCrCrUrCdTdT / antisense rGrArGrGrUrUrCrArArArUrGrGrGrUrArCrCrUdCdT”: 63.1%; for “sense rArGrGrUrGrCrUrUrGrGrArGrArCrCrArUrCrCdTdT / antisense rGrGrArUrGrGrUrCrUrCrCrArArGrCrArCrCrUdTdT”: 65.6%.
For “sense rArGrUrArGrGrCrArUrArGrArArArArGrArArAdTdT / antisense rUrUrUrCrUrUrUrUrCrUrArUrGrCrCrUrArCrUdAdG”, the normalised inhibition (eCFP-eYFP dual reporter) was found to be 102%.
For the substance “sense rArUrCrUrArCrCrArGrArGrGrCrUrGrGrUrGrAdTdT / antisense rUrCrArCrCrArGrCrCrUrCrUrGrGrUrArGrArUdTdA”, the normalised inhibition (eCFP-eYFP dual reporter) came out at 97%.
Regarding “sense rArUrUrCrCrUrGrArGrArGrGrUrArCrCrCrArUdTdT / antisense rArUrGrGrGrUrArCrCrUrCrUrCrArGrGrArArUdGdA”, the normalised inhibition (eCFP-eYFP dual reporter) is 114%.
Regarding “sense rArUrUrGrCrCrArCrCrArArArArGrGrUrGrCrUdTdT / antisense rArGrCrArCrCrUrUrUrUrGrGrUrGrGrCrArArUdTdT”, the normalised inhibition (eCFP-eYFP dual reporter) was 43.8%.
With “sense rCrArGrArGrUrArCrArCrArArCrUrCrArArCrAdTdT / antisense rUrGrUrUrGrArGrUrUrGrUrGrUrArCrUrCrUrGdGdA”, the normalised inhibition (eCFP-eYFP dual reporter) was found to be 83%.
Consider “sense rCrArGrGrCrArUrCrArCrArUrGrUrUrGrGrCrAdTdT / antisense rUrGrCrCrArArCrArUrGrUrGrArUrGrCrCrUrGdGdG”, for which the normalised inhibition (eCFP-eYFP dual reporter) was found to be 90.8%.
In the case of “sense rCrArUrCrGrCrArArCrUrGrUrGrUrUrGrArCrCdTdT / antisense rGrGrUrCrArArCrArCrArGrUrUrGrCrGrArUrGdTdT”, the normalised inhibition (eCFP-eYFP dual reporter) was determined as 84.8%.

A further data set has as its target UBE2D3. Nature of the data set: reporter assay of Huesken 2005. The note with it: siRNA.
“RNA1{r(U)p.r(G)p.r(G)p.r(C)p.r(A)p.r(G)p.r(C)p.r(A)p.r(U)p.r(U)p.r(U)p.r(G)p.r(U)p.r(C)p.r(U)p.r(C)p.r(G)p.r(A)p.r(U)p.d(T)p.d(T)}|RNA2{r(A)p.r(U)p.r(C)p.r(G)p.r(A)p.r(G)p.r(A)p.r(C)p.r(A)p.r(A)p.r(A)p.r(U)p.r(G)p.r(C)p.r(U)p.r(G)p.r(C)p.r(C)p.r(A)p.d(T)p.d(T)}$$$RNA1{StrandType:ss}|RNA2{StrandType:as}$”: the normalised inhibition (eCFP-eYFP dual reporter) amounted to 99.6%.
With “RNA1{r(U)p.r(G)p.r(G)p.r(G)p.r(A)p.r(C)p.r(C)p.r(U)p.r(A)p.r(A)p.r(U)p.r(G)p.r(A)p.r(C)p.r(A)p.r(G)p.r(C)p.r(C)p.r(C)p.d(T)p.d(T)}|RNA2{r(G)p.r(G)p.r(G)p.r(C)p.r(U)p.r(G)p.r(U)p.r(C)p.r(A)p.r(U)p.r(U)p.r(A)p.r(G)p.r(G)p.r(U)p.r(C)p.r(C)p.r(C)p.r(A)p.d(T)p.d(A)}$$$RNA1{StrandType:ss}|RNA2{StrandType:as}$”, the normalised inhibition (eCFP-eYFP dual reporter) was found to be 48.6%.
On to “RNA1{r(U)p.r(G)p.r(G)p.r(U)p.r(C)p.r(G)p.r(C)p.r(C)p.r(U)p.r(G)p.r(C)p.r(U)p.r(U)p.r(U)p.r(A)p.r(A)p.r(C)p.r(A)p.r(A)p.d(T)p.d(T)}|RNA2{r(U)p.r(U)p.r(G)p.r(U)p.r(U)p.r(A)p.r(A)p.r(A)p.r(G)p.r(C)p.r(A)p.r(G)p.r(G)p.r(C)p.r(G)p.r(A)p.r(C)p.r(C)p.r(A)p.d(C)p.d(T)}$$$RNA1{StrandType:ss}|RNA2{StrandType:as}$”, for which the normalised inhibition (eCFP-eYFP dual reporter) came out at 90.3%.
Take “RNA1{r(U)p.r(U)p.r(A)p.r(U)p.r(C)p.r(C)p.r(A)p.r(U)p.r(U)p.r(U)p.r(G)p.r(U)p.r(U)p.r(C)p.r(A)p.r(C)p.r(U)p.r(G)p.r(C)p.d(T)p.d(T)}|RNA2{r(G)p.r(C)p.r(A)p.r(G)p.r(U)p.r(G)p.r(A)p.r(A)p.r(C)p.r(A)p.r(A)p.r(A)p.r(U)p.r(G)p.r(G)p.r(A)p.r(U)p.r(A)p.r(A)p.d(A)p.d(A)}$$$RNA1{StrandType:ss}|RNA2{StrandType:as}$”: the normalised inhibition (eCFP-eYFP dual reporter) came out at 23.6%.
Regarding “RNA1{r(U)p.r(U)p.r(C)p.r(A)p.r(A)p.r(A)p.r(C)p.r(C)p.r(A)p.r(C)p.r(C)p.r(U)p.r(A)p.r(A)p.r(G)p.r(G)p.r(U)p.r(U)p.r(G)p.d(T)p.d(T)}|RNA2{r(C)p.r(A)p.r(A)p.r(C)p.r(C)p.r(U)p.r(U)p.r(A)p.r(G)p.r(G)p.r(U)p.r(G)p.r(G)p.r(U)p.r(U)p.r(U)p.r(G)p.r(A)p.r(A)p.d(G)p.d(G)}$$$RNA1{StrandType:ss}|RNA2{StrandType:as}$”, the normalised inhibition (eCFP-eYFP dual reporter) came out at 64.4%.
In the case of “RNA1{r(U)p.r(U)p.r(C)p.r(A)p.r(U)p.r(U)p.r(U)p.r(U)p.r(C)p.r(C)p.r(U)p.r(A)p.r(C)p.r(A)p.r(G)p.r(A)p.r(C)p.r(U)p.r(A)p.d(T)p.d(T)}|RNA2{r(U)p.r(A)p.r(G)p.r(U)p.r(C)p.r(U)p.r(G)p.r(U)p.r(A)p.r(G)p.r(G)p.r(A)p.r(A)p.r(A)p.r(A)p.r(U)p.r(G)p.r(A)p.r(A)p.d(T)p.d(T)}$$$RNA1{StrandType:ss}|RNA2{StrandType:as}$”, the normalised inhibition (eCFP-eYFP dual reporter) is 85%.
On the same count and under the same terms, the same measure for “RNA1{r(U)p.r(U)p.r(C)p.r(U)p.r(G)p.r(C)p.r(A)p.r(G)p.r(G)p.r(U)p.r(C)p.r(C)p.r(A)p.r(G)p.r(U)p.r(U)p.r(G)p.r(G)p.r(G)p.d(T)p.d(T)}|RNA2{r(C)p.r(C)p.r(C)p.r(A)p.r(A)p.r(C)p.r(U)p.r(G)p.r(G)p.r(A)p.r(C)p.r(C)p.r(U)p.r(G)p.r(C)p.r(A)p.r(G)p.r(A)p.r(A)p.d(C)p.d(A)}$$$RNA1{StrandType:ss}|RNA2{StrandType:as}$”: 50%; for “RNA1{r(U)p.r(U)p.r(G)p.r(C)p.r(A)p.r(U)p.r(U)p.r(U)p.r(A)p.r(C)p.r(A)p.r(A)p.r(C)p.r(A)p.r(A)p.r(G)p.r(A)p.r(A)p.r(U)p.d(T)p.d(T)}|RNA2{r(A)p.r(U)p.r(U)p.r(C)p.r(U)p.r(U)p.r(G)p.r(U)p.r(U)p.r(G)p.r(U)p.r(A)p.r(A)p.r(A)p.r(U)p.r(G)p.r(C)p.r(A)p.r(A)p.d(C)p.d(C)}$$$RNA1{StrandType:ss}|RNA2{StrandType:as}$”: 68.4%.
In the case of “RNA1{r(U)p.r(U)p.r(U)p.r(A)p.r(C)p.r(A)p.r(A)p.r(C)p.r(A)p.r(A)p.r(G)p.r(A)p.r(A)p.r(U)p.r(U)p.r(U)p.r(A)p.r(U)p.r(C)p.d(T)p.d(T)}|RNA2{r(G)p.r(A)p.r(U)p.r(A)p.r(A)p.r(A)p.r(U)p.r(U)p.r(C)p.r(U)p.r(U)p.r(G)p.r(U)p.r(U)p.r(G)p.r(U)p.r(A)p.r(A)p.r(A)p.d(T)p.d(G)}$$$RNA1{StrandType:ss}|RNA2{StrandType:as}$”, the normalised inhibition (eCFP-eYFP dual reporter) was 48.8%.
As to “RNA1{r(U)p.r(U)p.r(U)p.r(C)p.r(A)p.r(U)p.r(U)p.r(G)p.r(G)p.r(C)p.r(A)p.r(A)p.r(G)p.r(C)p.r(C)p.r(A)p.r(C)p.r(A)p.r(A)p.d(T)p.d(T)}|RNA2{r(U)p.r(U)p.r(G)p.r(U)p.r(G)p.r(G)p.r(C)p.r(U)p.r(U)p.r(G)p.r(C)p.r(C)p.r(A)p.r(A)p.r(U)p.r(G)p.r(A)p.r(A)p.r(A)p.d(C)p.d(A)}$$$RNA1{StrandType:ss}|RNA2{StrandType:as}$”, the normalised inhibition (eCFP-eYFP dual reporter) is 85.3%.
The same measure, in the same setting: the same measure for “RNA1{r(U)p.r(U)p.r(U)p.r(C)p.r(U)p.r(A)p.r(A)p.r(A)p.r(G)p.r(U)p.r(U)p.r(C)p.r(U)p.r(U)p.r(U)p.r(U)p.r(A)p.r(U)p.r(C)p.d(T)p.d(T)}|RNA2{r(G)p.r(A)p.r(U)p.r(A)p.r(A)p.r(A)p.r(A)p.r(G)p.r(A)p.r(A)p.r(C)p.r(U)p.r(U)p.r(U)p.r(A)p.r(G)p.r(A)p.r(A)p.r(A)p.d(T)p.d(T)}$$$RNA1{StrandType:ss}|RNA2{StrandType:as}$”: 30.6%.

Source of the values: the OligoGym collection.
